ChEMBL document CHEMBL5331066, “Structure-guided design of novel HEPT analogs with enhanced potency and safety: From Isopropyl-HEPTs to Cyclopropyl-HEPTs” (Eur J Med Chem, 2023)

Experiments:
[1] = system: Human immunodeficiency virus 1; assay: Antiviral activity against HIV1 harboring K103 N mutant infected in human MT4 cells assessed as protection against virus-induced cytopathicity; assay type: functional, organism-based; conditions: Human immunodeficiency virus 1, MT4
[2] = system: Human immunodeficiency virus 1; assay: Antiviral activity against HIV1 harboring Y188L mutant infected in human MT4 cells assessed as protection against virus-induced cytopathicity; assay type: functional, organism-based; conditions: Human immunodeficiency virus 1, MT4
[3] = system: Human immunodeficiency virus 1; assay: Antiviral activity against wild type HIV1 IIIB infected in human MT4 cells assessed as protection against virus-induced cytopathicity; assay type: functional, organism-based; conditions: Human immunodeficiency virus 1, IIIB
[4] = biological target: Human immunodeficiency virus type 1 reverse transcriptase (Human immunodeficiency virus 1, UniProt Q72547); assay: Inhibition of wild type HIV-1 reverse transcriptase assessed as inhibition of biotin deoxyuridine triphosphate incorporation into […]
[5] = Selectivity index, ratio of CC50 for cytotoxicity against human MT4 cells to EC50 for antiviral activity against wild type HIV1 IIIB infected in human MT4 cells; assay type: toxicity, cell-based; conditions: read-out: Ratio CC50/EC50
[6] = system: Human immunodeficiency virus 1; assay: Antiviral activity against HIV1 harboring L100I mutant infected in human MT4 cells assessed as protection against virus-induced cytopathicity; assay type: functional, organism-based; conditions: Human immunodeficiency virus 1, MT4
[7] = Cytotoxicity against human MT4 cells assessed as reduction in cell viability; assay type: toxicity, cell-based
[8] = system: Human immunodeficiency virus 1; assay: Antiviral activity against HIV1 harboring Y181C mutant infected in human MT4 cells assessed as protection against virus-induced cytopathicity; assay type: functional, organism-based; conditions: Human immunodeficiency virus 1, MT4
[9] = system: Human immunodeficiency virus 1; assay: Antiviral activity against HIV1 harboring E138K mutant infected in human MT4 cells assessed as protection against virus-induced cytopathicity; assay type: functional, organism-based; conditions: Human immunodeficiency virus 1, MT4
[10] = Cmax in Sprague-Dawley rat at 1 mg/kg,iv; assay type: ADME, organism-based; design: dose 1 mg/kg, route iv; conditions: in vivo
Cytochrome P450 3A4 [11] = biological target: T1, Cytochrome P450 3A4 (Homo sapiens, UniProt P08684); assay: Inhibition of CYP3A4T (unknown origin); assay type: ADME
[12] = Acute toxicity in mouse assessed as pathological changes in spleen at 1000 mg/kg,IG administrated for 2 weeks by hematoxylin-eosin staining based analysis; assay type: organism-based; conditions: in vivo, po, 336 h
Cytochrome P450 1A2 = biological target: T2, Cytochrome P450 1A2 (Homo sapiens, UniProt P05177); assay: Inhibition of CYP1A2 (unknown origin); assay type: ADME
T2 sequence (P05177 whole entry): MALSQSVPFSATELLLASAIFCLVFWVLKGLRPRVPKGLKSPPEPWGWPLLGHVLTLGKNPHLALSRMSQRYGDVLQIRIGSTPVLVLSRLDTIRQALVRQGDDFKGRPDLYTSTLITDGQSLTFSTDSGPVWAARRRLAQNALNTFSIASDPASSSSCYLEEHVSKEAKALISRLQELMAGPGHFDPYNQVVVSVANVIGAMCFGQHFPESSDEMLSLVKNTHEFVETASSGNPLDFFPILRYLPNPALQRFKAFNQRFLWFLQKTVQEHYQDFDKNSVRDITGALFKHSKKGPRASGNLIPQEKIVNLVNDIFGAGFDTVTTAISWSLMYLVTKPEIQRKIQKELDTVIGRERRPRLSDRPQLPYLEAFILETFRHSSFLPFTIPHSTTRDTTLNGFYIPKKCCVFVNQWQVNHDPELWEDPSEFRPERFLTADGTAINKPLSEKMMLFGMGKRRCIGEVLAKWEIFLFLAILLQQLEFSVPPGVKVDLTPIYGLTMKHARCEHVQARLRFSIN

[13] = Acute toxicity in mouse assessed as pathological changes in liver at 1000 mg/kg,IG administrated for 2 weeks by hematoxylin-eosin staining based analysis; assay type: organism-based; conditions: in vivo, po, 336 h
[14] = Cmax in Sprague-Dawley rat at 10 mg/kg,po; assay type: ADME, organism-based; design: dose 10 mg/kg, route po; conditions: in vivo
[15] = biological target: Voltage-gated inwardly rectifying potassium channel KCNH2 (Homo sapiens, UniProt Q12809); assay: Inhibition of human ERG potassium channel expressed in CHO cells by manual patch clamp method; assay type: toxicity, cell-based
[16] = Tmax in Sprague-Dawley rat at 10 mg/kg,po; assay type: ADME, organism-based; conditions: in vivo
[17] = Acute toxicity in mouse assessed as pathological changes in lung at 1000 mg/kg,IG administrated for 2 weeks by hematoxylin-eosin staining based analysis; assay type: organism-based; conditions: in vivo, po, 336 h
[18] = AUC (0-infinity) in Sprague-Dawley rat at 1 mg/kg,iv; assay type: ADME, organism-based; design: dose 1 mg/kg, route iv; conditions: in vivo
[19] = Acute toxicity in mouse assessed as behavioral abnormalities at 1000 mg/kg,IG administrated for 2 weeks; assay type: organism-based; conditions: in vivo, po, 336 h
[20] = Oral bioavailability in Sprague-Dawley rat at 10 mg/kg; assay type: ADME, organism-based; conditions: in vivo
[21] = Clearance in Sprague-Dawley rat at 1 mg/kg,iv; assay type: ADME, organism-based; conditions: in vivo
Cytochrome P450 2C9 = Cytochrome P450 2C9 (Homo sapiens, UniProt P11712); assay: Inhibition of CYP2C9 (unknown origin); assay type: ADME
[22] = Acute toxicity in mouse assessed as death at 1000 mg/kg,IG administrated for 2 weeks; assay type: organism-based; conditions: in vivo, po, 336 h
[23] = Tmax in Sprague-Dawley rat at 1 mg/kg,iv; assay type: ADME, organism-based; conditions: in vivo
Cytochrome P450 2D6 = Cytochrome P450 2D6 (Homo sapiens, UniProt P10635); assay: Inhibition of CYP2D6 (unknown origin); assay type: ADME
[24] = Half life in Sprague-Dawley rat at 10 mg/kg,po; assay type: ADME, organism-based; conditions: in vivo
Cytochrome P450 2C19 = Cytochrome P450 2C19 (Homo sapiens, UniProt P33261); assay: Inhibition of CYP2C19 (unknown origin); assay type: ADME
[25] = Half life in Sprague-Dawley rat at 1 mg/kg,iv; assay type: ADME, organism-based; conditions: in vivo
[26] = Acute toxicity in mouse assessed as pathological changes in heart at 1000 mg/kg,IG administrated for 2 weeks by hematoxylin-eosin staining based analysis; assay type: organism-based; conditions: in vivo, po, 336 h
Cytochrome P450 3A4 [27] = biological target: T1, Cytochrome P450 3A4; assay: Inhibition of CYP3A4M (unknown origin); assay type: ADME
[28] = Apparent volume of distribution in Sprague-Dawley rat at 1 mg/kg,iv; assay type: ADME, organism-based; conditions: in vivo, read-out: Vz
[29] = AUC (0-t) in Sprague-Dawley rat at 1 mg/kg,iv; assay type: ADME, organism-based; design: dose 1 mg/kg, route iv; conditions: in vivo
[30] = AUC (0-t) in Sprague-Dawley rat at 10 mg/kg,po; assay type: ADME, organism-based; design: dose 10 mg/kg, route po; conditions: in vivo
[31] = Acute toxicity in mouse assessed as increase in body weight at 1000 mg/kg,IG administrated for 2 weeks; assay type: organism-based; conditions: in vivo, po, 336 h
[32] = Acute toxicity in mouse assessed as pathological changes in brain at 1000 mg/kg,IG administrated for 2 weeks by hematoxylin-eosin staining based analysis; assay type: organism-based; conditions: in vivo, po, 336 h
[33] = AUC (0-infinity) in Sprague-Dawley rat at 10 mg/kg,po; assay type: ADME, organism-based; design: dose 10 mg/kg, route po; conditions: in vivo
[34] = Acute toxicity in mouse assessed as pathological changes in kidney at 1000 mg/kg,IG administrated for 2 weeks by hematoxylin-eosin staining based analysis; assay type: organism-based; conditions: in vivo, po, 336 h

Chain of Cytochrome P450 2D6 (P10635 whole entry): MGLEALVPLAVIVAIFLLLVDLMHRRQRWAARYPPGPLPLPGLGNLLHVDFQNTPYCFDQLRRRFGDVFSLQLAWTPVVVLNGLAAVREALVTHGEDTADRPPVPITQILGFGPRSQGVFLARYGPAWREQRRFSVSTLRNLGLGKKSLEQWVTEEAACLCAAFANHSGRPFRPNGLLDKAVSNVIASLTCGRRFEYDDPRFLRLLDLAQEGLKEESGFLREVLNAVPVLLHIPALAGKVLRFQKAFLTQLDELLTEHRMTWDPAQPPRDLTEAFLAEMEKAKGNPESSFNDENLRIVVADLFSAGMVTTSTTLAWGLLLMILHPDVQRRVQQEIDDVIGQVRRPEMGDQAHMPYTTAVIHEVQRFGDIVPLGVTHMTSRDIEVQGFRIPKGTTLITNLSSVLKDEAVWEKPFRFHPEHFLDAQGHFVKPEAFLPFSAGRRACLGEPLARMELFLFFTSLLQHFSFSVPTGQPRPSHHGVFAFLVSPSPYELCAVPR
T1 sequence (P08684 whole entry): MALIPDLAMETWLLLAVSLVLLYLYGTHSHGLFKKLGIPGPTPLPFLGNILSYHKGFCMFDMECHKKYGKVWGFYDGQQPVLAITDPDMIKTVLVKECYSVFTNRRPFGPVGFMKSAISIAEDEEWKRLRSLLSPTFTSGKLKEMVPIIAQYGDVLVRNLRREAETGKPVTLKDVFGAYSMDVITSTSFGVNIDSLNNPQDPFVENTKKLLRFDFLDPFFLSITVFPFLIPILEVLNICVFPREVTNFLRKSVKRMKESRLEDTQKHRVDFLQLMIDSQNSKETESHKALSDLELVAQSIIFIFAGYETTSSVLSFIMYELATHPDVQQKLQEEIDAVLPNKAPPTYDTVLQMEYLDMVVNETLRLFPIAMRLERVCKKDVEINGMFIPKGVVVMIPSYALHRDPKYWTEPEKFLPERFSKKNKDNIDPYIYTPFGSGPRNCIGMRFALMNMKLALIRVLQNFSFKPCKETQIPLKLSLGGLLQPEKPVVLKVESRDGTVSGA
Chain of Voltage-gated inwardly rectifying potassium channel KCNH2 (Q12809 whole entry): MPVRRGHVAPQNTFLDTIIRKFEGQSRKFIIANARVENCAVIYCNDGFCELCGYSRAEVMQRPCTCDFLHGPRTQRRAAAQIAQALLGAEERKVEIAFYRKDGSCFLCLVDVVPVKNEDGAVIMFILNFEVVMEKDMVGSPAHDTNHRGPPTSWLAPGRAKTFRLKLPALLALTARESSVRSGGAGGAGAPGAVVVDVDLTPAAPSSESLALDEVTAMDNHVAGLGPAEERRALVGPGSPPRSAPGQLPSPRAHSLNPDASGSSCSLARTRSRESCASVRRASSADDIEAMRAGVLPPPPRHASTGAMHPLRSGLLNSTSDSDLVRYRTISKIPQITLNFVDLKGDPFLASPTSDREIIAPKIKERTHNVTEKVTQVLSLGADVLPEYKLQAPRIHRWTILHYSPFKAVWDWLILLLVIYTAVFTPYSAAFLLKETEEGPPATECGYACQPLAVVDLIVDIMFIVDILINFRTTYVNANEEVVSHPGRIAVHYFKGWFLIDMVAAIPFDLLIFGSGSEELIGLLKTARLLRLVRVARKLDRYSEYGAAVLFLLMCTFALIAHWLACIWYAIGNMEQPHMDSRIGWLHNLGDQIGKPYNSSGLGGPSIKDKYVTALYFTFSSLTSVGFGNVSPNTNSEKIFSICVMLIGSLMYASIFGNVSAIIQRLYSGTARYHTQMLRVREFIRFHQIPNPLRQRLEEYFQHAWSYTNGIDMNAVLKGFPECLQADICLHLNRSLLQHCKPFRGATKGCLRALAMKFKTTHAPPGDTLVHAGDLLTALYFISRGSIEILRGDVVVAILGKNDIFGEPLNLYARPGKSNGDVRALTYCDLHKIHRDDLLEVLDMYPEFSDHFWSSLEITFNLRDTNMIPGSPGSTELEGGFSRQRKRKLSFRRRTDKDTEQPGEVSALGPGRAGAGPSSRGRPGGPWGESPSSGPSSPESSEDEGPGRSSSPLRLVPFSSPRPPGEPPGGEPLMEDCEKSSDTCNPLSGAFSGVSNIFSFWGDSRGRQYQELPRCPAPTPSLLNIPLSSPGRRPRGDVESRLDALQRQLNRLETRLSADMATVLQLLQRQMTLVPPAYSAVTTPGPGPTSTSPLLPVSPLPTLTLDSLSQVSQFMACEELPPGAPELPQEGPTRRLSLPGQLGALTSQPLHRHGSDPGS
Chain of Cytochrome P450 2C9 (P11712 whole entry): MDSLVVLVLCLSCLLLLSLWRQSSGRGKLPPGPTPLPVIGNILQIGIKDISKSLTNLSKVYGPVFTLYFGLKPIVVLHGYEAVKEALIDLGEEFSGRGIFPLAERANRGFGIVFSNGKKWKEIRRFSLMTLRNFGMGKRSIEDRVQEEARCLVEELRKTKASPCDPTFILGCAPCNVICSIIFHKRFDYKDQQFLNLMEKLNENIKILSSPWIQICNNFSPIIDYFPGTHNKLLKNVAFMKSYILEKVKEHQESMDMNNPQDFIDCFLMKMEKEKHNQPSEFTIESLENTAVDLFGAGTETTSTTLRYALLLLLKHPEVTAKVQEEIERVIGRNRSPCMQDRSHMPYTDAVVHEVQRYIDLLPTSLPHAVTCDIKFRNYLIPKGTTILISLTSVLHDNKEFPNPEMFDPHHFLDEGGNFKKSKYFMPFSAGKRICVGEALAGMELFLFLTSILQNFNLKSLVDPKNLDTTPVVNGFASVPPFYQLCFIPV
Chain of Cytochrome P450 2C19 (P33261 whole entry): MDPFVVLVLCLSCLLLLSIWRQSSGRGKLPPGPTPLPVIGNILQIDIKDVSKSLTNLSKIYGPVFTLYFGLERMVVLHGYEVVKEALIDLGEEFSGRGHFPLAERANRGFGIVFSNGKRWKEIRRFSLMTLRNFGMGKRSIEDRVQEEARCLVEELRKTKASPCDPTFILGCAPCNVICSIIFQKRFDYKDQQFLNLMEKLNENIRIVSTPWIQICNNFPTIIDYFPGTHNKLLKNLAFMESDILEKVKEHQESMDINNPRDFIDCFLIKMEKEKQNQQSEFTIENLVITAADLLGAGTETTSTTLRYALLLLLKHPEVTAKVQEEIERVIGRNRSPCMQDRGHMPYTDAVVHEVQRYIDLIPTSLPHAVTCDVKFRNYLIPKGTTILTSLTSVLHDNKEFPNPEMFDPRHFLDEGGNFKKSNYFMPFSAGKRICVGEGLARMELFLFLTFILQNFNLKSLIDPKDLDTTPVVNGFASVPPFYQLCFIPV

In the case of COc1ccccc1Sc1c(C2CC2)c(=O)[nH]c(=O)n1COCc1ccccc1, the EC50 [1] is reported as ≥ 9.28 µM, the EC50 [2] is reported as > 33.6 µM and the EC50 [3] is reported as 0.17 µM. The IC50 [4] was 0.56 µM, the selectivity ratio [5] was 197 and the EC50 [6] was 0.61 µM. The CC50 [7] was 33.6 µM, the EC50 [8] was 3.82 µM and the EC50 [9] was 0.83 µM.
With COc1cccc(Sc2c(C3CC3)c(=O)[nH]c(=O)n2COCc2ccccc2)c1 the EC50 [1] was 9.31 µM, the EC50 [2] was > 33.1 µM and the EC50 [3] was 0.085 µM. The IC50 [4] was 0.18 µM, the selectivity ratio [5] was 383 and the EC50 [6] was 0.27 µM. The CC50 [7] was 33.1 µM, the EC50 [8] was 5.1 µM and the EC50 [9] was 0.49 µM.
Cc1cc(C)cc(Sc2c(C3CC3)c(=O)[nH]c(=O)n2COCc2ccccc2)c1 gave an EC50 [1] of 1.05 µM, an EC50 [2] of 3.75 µM and an EC50 [3] of 0.023 µM. The IC50 [4] was 0.08 µM, the selectivity ratio [5] was 1480 and the EC50 [6] was 0.13 µM. The CC50 [7] was 34 µM, the EC50 [8] was 1.03 µM and the EC50 [9] was 0.14 µM.
With Cc1cccc(C)c1Sc1c(C2CC2)c(=O)[nH]c(=O)n1COCc1ccccc1 the EC50 [1] was > 30.3 µM, the EC50 [2] was > 30.3 µM and the EC50 [3] was 4.36 µM. For the same compound, the IC50 [4] was 6.12 µM, the selectivity ratio [5] was 7 and the EC50 [6] was > 7.42 µM. For the same compound, the CC50 [7] was 30.3 µM, the EC50 [8] was > 30.3 µM and the EC50 [9] was > 30.3 µM.
For O=c1[nH]c(=O)n(COCc2ccccc2)c(Sc2ccncc2)c1C1CC1, the EC50 [1] was 24 µM, the EC50 [2] was > 167 µM and the EC50 [3] was 22.2 µM. For the same compound, the IC50 [4] was 0.63 µM, the selectivity ratio [5] was 8 and the EC50 [6] was 1.44 µM. The CC50 [7] was 177 µM, the EC50 [8] was 17.8 µM and the EC50 [9] was 0.76 µM.
With O=c1[nH]c(=O)n(COCc2ccccc2)c(Sc2ccccn2)c1C1CC1 the EC50 [1] was 6.12 µM, the EC50 [2] was > 49.9 µM and the EC50 [3] was 0.17 µM. It also gave an IC50 [4] of 0.11 µM, a selectivity ratio [5] of 1000 and an EC50 [6] of 0.39 µM. For the same compound, the CC50 [7] was 167 µM, the EC50 [8] was 3.99 µM and the EC50 [9] was 0.25 µM.
In the case of O=c1[nH]c(=O)n(COCc2ccccc2)c(Sc2cc(F)ccc2F)c1C1CC1, the Cmax [10] is reported as 2030 ng/mL, the IC50 (Cytochrome P450 3A4 [11]) is reported as > 50 µM and the Activity [12] is reported as “Non-Toxic”. The EC50 [1] was 2.64 µM, the IC50 (Cytochrome P450 1A2) was > 50 µM and the Activity [13] was “Non-Toxic”. For the same compound, the Cmax [14] was 3520 ng/mL, the IC50 [15] was > 40 µM and the Tmax [16] was 35 min. The Activity [17] was “Non-Toxic”, the EC50 [2] was > 39.2 µM and the AUC(0-inf) [18] was 1100 ng·h/mL. The Activity [19] was “Non-Toxic”, the EC50 [3] was 0.017 µM and the bioavailability [20] was 86.7%. The IC50 [4] was 0.03 µM, the clearance [21] was 15.6 mL/min/kg and the IC50 (Cytochrome P450 2C9) was 27.6 µM. The Activity [22] was “Non-Toxic”, the selectivity ratio [5] was 2330 and the EC50 [6] was 0.38 µM. For the same compound, the Tmax [23] was 4.98 min, the IC50 (Cytochrome P450 2D6) was > 50 µM and the half-life [24] was 151 min. The IC50 (Cytochrome P450 2C19) was 30.3 µM, the half-life [25] was 30.8 min and the CC50 [7] was 39.2 µM. The Activity [26] was “Non-Toxic”, the IC50 (Cytochrome P450 3A4 [27]) was > 50 µM and the EC50 [8] was 1.85 µM. The Vd [28] was 0.698 L/kg, the AUC(0-t) [29] was 1100 ng·h/mL and the AUC(0-t) [30] was 8660 ng·h/mL. For the same compound, the EC50 [9] was 0.09 µM, the Activity [31] was “Non-Toxic” and the Activity [32] was “Non-Toxic”. The AUC(0-inf) [33] was 9560 ng·h/mL and the Activity [34] was “Non-Toxic”.
COc1ccc2c(c1)[C@]13CCCC[C@@H]1[C@H](C2)N(C)CC3 [DEXTROMETHORPHAN] gave an IC50 (Cytochrome P450 2D6) of 0.052 µM.
